Assay results published in EP1377579B1 (Aventis Pharmaceuticals Inc., priority 2000, dated 2002).
Where “and” joins values, the source holds several entries; their conditions need not be identical. Equal values may be shown once. Read-outs that look alike come from different tables or passages of the source.

What was measured:
cdk1/cyclin B = cdk1/cyclin B (Homo sapiens, UniProt P06493); assay: Cyclin-dependent kinase assay, cdk1/cyclin B; conditions: CDK1 IC50, nM, Histone H1, 10 µM ATP
NCI-H460 = assay: In vitro proliferation assay (MTT), NCI-H460; assay type: cell-based; conditions: Homo sapiens
Summary of the method: (§1)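 Cells in RPMI 1640 with 5 % fetal bovine serum were seeded at 1000 to 2500 cells/well and allowed to attach overnight. After 3 days of compound exposure, MTT was added for 2 to 4 hr at 37 C. The dye was dissolved in DMSO, absorbance read at 570 nm, and IC50s derived.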

Jurkat = assay: In vitro proliferation assay (MTT), Jurkat; assay type: cell-based; conditions: Homo sapiens, read-out: Jurkat Leuk. (IC50 µM)
Summary of the method: as §1

HL-60 Human Leukemia = assay: HL-60 human leukemia xenograft in nude mice; assay type: in vivo; parameters: key: tumor volume = ½(a × b²) from caliper diameters, in mm^3
Procedure: Antitumor efficacy is assessed using two subcutaneous human tumor xenograft models. The studies are performed using conventional assay techniques. Briefly, HL-60 (leukemia, 5 x10^5 cells) and PC-3 (prostate, 5 x 10^6 cells) tumor cells are injected subcuateously into nude mice (Crl-CD1-Br-nu, Charles River Laboratory, Wilmington, MA). Dosing with compounds began when tumors reached 50 to 100 mm^3. The dose route/schedule for the test compounds is ip/qld (5x/wk). The test doses are set based on the maximum tolerated dose (MTD). […] The test doses for the efficacy studies are set at 1/3rd the MTD (low dose) and the MTD (high dose). The results are shown in Tables 4 and 5 (HL-60, leukemia) (PC-3, prostate cancer). The length of the treatment phase is dependent on the tumor growth rate for the two models. This treatment phase is typically about 3 weeks for the HL-60 model and about 5 weeks for the PC-3 model. […] Dosing with flavopiridol is for the same time frame as for the experimental compounds in both xenograft models. Tumor volume (twice weekly) and body weights (once weekly) are monitored throughout the course of the treatment phase of the experiment. Tumor sizes are measured by external caliper measurements of protruding tumor. Volumes are calculated using the following formula: volume =½ (a x b2), where b is the smaller of two perpendicular diameters.

[1] = Red blood cell binding, mouse whole blood; assay type: in vitro ADME; conditions: 30 minutes at 37°C, 500 ng/ml
Procedure: (§2) Compounds, including one positive control, are assessed for red blood cell (RBC) uptake, using a modified procedure based on the protocol reported in Sun, J.X.S., et al. High-performance liquid chromatographic analysis, plasma protein binding and red blood cell partitioning of phenprobamate. Biopharmaceutics and Drug Disposition, 8 (1987) 341-351.
(§3) Briefly, RBC uptake is evaluated by comparison of the levels in spiked plasma (n=3) and plasma isolated from spiked whole blood (n=3). Compounds are incubated with human and mouse whole blood, respectively, for 30 minutes at 37°C using a nominal concentration of 500 ng/ml. Following centrifugation, the plasma is removed and submitted for analysis. Each compound is also spiked into blank plasma at a nominal concentration of 500 ng/ml, and submitted for analysis. Levels in the two plasma samples (Cp' and Cp in the equation below) and the blood hematocrit are used to determine the red blood cell to plasma ratio (Crbc/Cp). (Crbc)/(Cp) = (Cpʹ)/(Cp•H)-((1-H))/(H) [formula] In equation 1, Cp' is the level of drug in the spiked "blank" plasma, Cp is the level of drug in the plasma of spiked whole blood, and H is the hematocrit. The hematocrit values are determined as 0.4 for human whole blood and 0.41 for mouse whole blood. The samples are analyzed with ESI LC/MS, using positive ion detection with an internal standard.
(§4) The red blood cell to plasma ratio is determined for each compound using equation 1. Tables 6 and 7 summarize the respective mean Crbc/Cp values and standard deviations for mouse and human whole blood, respectively, in descending order based on the red blood cell to plasma ratio, where"*" denotes Positive Control, and "ND" denotes Not Determined. MDL 108552 is included as a positive control for red blood cell uptake. Table 6. Red Blood Cell to Plasma Ratio for compounds in mouse whole blood

[2] = Red blood cell binding, human whole blood; assay type: in vitro ADME; conditions: 30 minutes at 37°C, 500 ng/ml
Procedure: as §2, §3, §4

PC-3 = assay: In vitro proliferation assay (MTT), PC-3; assay type: cell-based, human; conditions: Homo sapiens
Summary of the method: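 Cells were seeded at 1000 to 2500 cells/well, allowed to attach overnight, then exposed to test compounds for 3 days. Viable cells were estimated by MTT dye reduction, with dye solubilized in DMSO and absorbance read at 570 nm; IC50s derived from raw data.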

[3] = NCI-H460, MTT assay, value (SD, n) where given, read-out: H-460 Lung (IC50 µM)
[4] = MTT assay, value (SD, n) where given
[5] = PC-3, MTT assay, value (SD, n) where given, read-out: PC-3 Prostate (IC50 µM)
[6] = NCI-H460, read-out: H-460 Lung (IC50 µM)
[7] = PC-3, read-out: PC-3 Prostate (IC50 µM)

cdk1/cyclin B, sequence (P06493 whole entry): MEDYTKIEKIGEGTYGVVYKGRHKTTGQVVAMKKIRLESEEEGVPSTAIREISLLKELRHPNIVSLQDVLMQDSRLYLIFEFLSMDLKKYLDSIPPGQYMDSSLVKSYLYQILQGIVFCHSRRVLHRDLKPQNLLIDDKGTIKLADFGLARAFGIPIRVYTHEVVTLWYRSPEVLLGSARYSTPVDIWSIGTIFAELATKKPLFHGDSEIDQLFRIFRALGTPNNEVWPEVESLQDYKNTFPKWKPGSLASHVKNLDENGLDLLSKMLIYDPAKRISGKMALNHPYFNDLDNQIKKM
cdk1/cyclin B, sequence (P14635 whole entry partner): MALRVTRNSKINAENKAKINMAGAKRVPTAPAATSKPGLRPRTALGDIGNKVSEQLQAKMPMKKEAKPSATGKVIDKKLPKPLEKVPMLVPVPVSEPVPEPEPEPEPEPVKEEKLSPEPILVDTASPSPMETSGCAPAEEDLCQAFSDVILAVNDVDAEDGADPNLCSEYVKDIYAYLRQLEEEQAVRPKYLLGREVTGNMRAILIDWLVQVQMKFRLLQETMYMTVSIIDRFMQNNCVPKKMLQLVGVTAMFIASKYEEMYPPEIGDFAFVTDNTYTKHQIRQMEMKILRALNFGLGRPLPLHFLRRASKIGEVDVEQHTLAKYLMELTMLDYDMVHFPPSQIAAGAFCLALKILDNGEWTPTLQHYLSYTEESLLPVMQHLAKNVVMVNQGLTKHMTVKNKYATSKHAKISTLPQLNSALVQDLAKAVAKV

| IC50 (NCI-H460; [3]) | IC50 (Jurkat; [4]) | IC50 (PC-3; [5]) | Compound | IC50 (cdk1/cyclin B) | HL60 Mean Vol. ± SD (HL-60 Human Leukemia; Table 5, dose 3 mg/kg ip) | HL60 Mean Vol. ± SD (HL-60 Human Leukemia; Table 5, dose 10 mg/kg ip) | Mean Red Blood Cell to Plasma Ratio [1] | Mean Red Blood Cell to Plasma Ratio [2] | IC50 (NCI-H460; [6]) | IC50 (Jurkat) | HL60 Mean Vol. ± SD (HL-60 Human Leukemia; Table 5, dose 1 mg/kg ip) | Mean Red Blood Cell to Plasma Ratio ([1]; dihydrochloride) | IC50 (PC-3; [7]) | HL60 Mean Vol. ± SD (HL-60 Human Leukemia; Table 4, dose 1 mg/kg ip) | HL60 Mean Vol. ± SD (HL-60 Human Leukemia; Table 4, dose 3 mg/kg ip) | HL60 Mean Vol. ± SD (HL-60 Human Leukemia; Table 4, dose 10 mg/kg ip) | HL60 Mean Vol. ± SD (HL-60 Human Leukemia; Table 4, dose 0.3 mg/kg ip) |
| --- | --- | --- | --- | --- | --- | --- | --- | --- | --- | --- | --- | --- | --- | --- | --- | --- | --- |
| 0.38 µM | 0.48 µM | 0.48 µM | Cl.Cl.N[C@H]1CC[C@H](Nc2nc(NC3CCN(C(=O)c4cccc(C(F)(F)F)c4F)CC3)c3ncn(C4CCCC4)c3n2)CC1 [compound 12, trans-1-{4-[2-(4-Amino-cyclohexylamino)-9-cyclopentyl-9H-purin-6-ylamino]-piperidin-1-yl}-1-(2-fluoro-3-trifluoromethyl-phenyl)-methanone dihydrochloride] | 88 nM | 4948 ± 2803 | 2624 ± 2108 | 1.9 | 3.6 | – | – | – | – | – | – | – | – | – |
| – | – | – | Cl.Cl.N[C@H]1CC[C@H](Nc2nc(NC3CCN(C(=O)Oc4ccc(Br)cc4)CC3)c3ncn(C4CCCC4)c3n2)CC1 [compound 81, trans-4-[2-(4-Amino-cyclohexylamino)-9-cyclopentyl-9H-purin-6-ylamino]-piperidine-1-carboxylic acid 4-bromo-phenyl ester dihydrochloride] | 16 nM | 5104 ± 4014 | – | – | 5.3 | 0.07 µM | 0.1 µM | 5802 ± 2996 | 3.3 and 4.5 | 0.12 µM | – | – | – | – |
| – | – | – | COC(=O)c1ccc(OC(=O)N2CCC(Nc3nc(N[C@H]4CC[C@H](N)CC4)nc4c3ncn4C3CCCC3)CC2)cc1.Cl.Cl [compound 83, trans-4-[2-(4-Amino-cyclohexylamino)-9-cyclopentyl-9H-purin-6-ylamino]-piperidine-1-carboxylic acid 4-methoxycarbonyl-phenyl ester dihydrochloride] | 19 nM | 5906 ± 2948 | 4057 ± 2599 | 112.2 | 4.1 | 0.07 µM | 0.14 µM | – | – | 0.15 µM | – | – | – | – |
| – | – | – | COc1ccc(OC(=O)N2CCC(Nc3nc(N[C@H]4CC[C@H](N)CC4)nc4c3ncn4C3CCCC3)CC2)cc1.Cl.Cl [compound 84, trans-4-[2-(4-Amino-cyclohexylamino)-9-cyclopentyl-9H-purin-6-ylamino]-piperidine-1-carboxylic acid 4-methoxy-phenyl ester dihydrochloride] | 19 nM | 4886 ± 3467 | – | 3.5 | 2.0 | 0.07 µM | 0.12 µM | 4790 ± 6912 | – | 0.12 µM | – | – | – | – |
| – | – | – | Cl.Cl.N[C@H]1CC[C@H](Nc2nc(NC3CCN(C(=O)Oc4ccc(F)cc4)CC3)c3ncn(C4CCCC4)c3n2)CC1 [compound 87, trans-4-[2-(4-Amino-cyclohexylamino)-9-cyclopentyl-9H-purin-6-ylamino]-piperidine-1-carboxylic acid 4-fluoro-phenyl ester dihydrochloride] | 15 nM | – | – | 3.4 | 8.4 | 0.08 µM | 0.2 µM | – | – | – | 3718 ± 2715 | 7096 ± 3079 | – | – |
| – | – | – | Cl.Cl.N[C@H]1CC[C@H](Nc2nc(NC3CCN(C(=O)Oc4ccc(Cl)cc4)CC3)c3ncn(C4CCCC4)c3n2)CC1 [compound 88, trans-4-[2-(4-Amino-cyclohexylamino)-9-cyclopentyl-9H-purin-6-ylamino]-piperidine-1-carboxylic acid 4-chloro-phenyl ester dihydrochloride] | 35 nM | – | – | 3.5 | 2.6 | 0.06 µM | 0.02 µM | – | – | 0.1 µM | 4415 ± 2740 | 2624 ± 2108 | – | – |
| – | – | – | Cl.Cl.N[C@H]1CC[C@H](Nc2nc(NC3CCN(C(=O)Oc4ccc([N+](=O)[O-])cc4)CC3)c3ncn(C4CCCC4)c3n2)CC1 [compound 89, trans-4-[2-(4-Amino-cyclohexylamino)-9-cyclopentyl-9H-purin-6-ylamino]-piperidine-1-carboxylic acid 4-nitro-phenyl ester dihydrochloride] | 20 nM | – | – | 4.7 | 4.2 | 0.03 µM | 0.07 µM | – | – | 0.06 µM | 2444 ± 2291 | 4278 ± 2801 | – | – |
| 0.22 µM | 0.19 µM | 0.82 µM | Cl.Cl.N[C@H]1CC[C@H](Nc2nc(NC3CCN(S(=O)(=O)c4ccc(F)cc4)CC3)c3ncn(C4CCCC4)c3n2)CC1 [compound 106, trans-N^2-(4-Amino-cyclohexyl)-9-cyclopentyl-N^6-[1-(4-fluoro-benzenesulfonyl)-piperidin-4-yl]-9H-purine-2,6-diamine dihydrochloride] | 8 nM | – | – | 3.0 | 3.9 | – | – | – | – | – | 4271 ± 3851 | 7368 ± 2592 | – | – |
| 0.25 µM | 0.44 µM | 0.32 µM | Cl.Cl.N#Cc1ccc(S(=O)(=O)N2CCC(Nc3nc(N[C@H]4CC[C@H](N)CC4)nc4c3ncn4C3CCCC3)CC2)cc1 [compound 109, trans-N^2-(4-Amino-cyclohexyl)-9-cyclopentyl-N^6-[1-(4-cyano-benzenesulfonyl)-piperidin-4-yl]-9H-purine-2,6-diamine dihydrochloride] | 18 nM | – | – | 2.4 | 5.0 | – | – | – | – | – | – | 2597 ± 2240 | 3466 ± 3730 | – |
| 0.28 µM | 1.05 µM | 0.76 µM | COC(=O)c1ccccc1S(=O)(=O)N1CCC(Nc2nc(N[C@H]3CC[C@H](N)CC3)nc3c2ncn3C2CCCC2)CC1.Cl.Cl [compound 111, trans-2-{4-[2-(4-Amino-cyclohexylamino)-9-cyclopentyl-9H-purin-6-ylamino]-piperidine-1-sulfonyl}-benzoic acid methyl ester dihydrochloride] | 17 nM | – | – | 2.2 | 1.2 | – | – | – | – | – | – | 3798 ± 2431 | 2387 ± 1282 | – |
| 0.07 µM | 0.11 µM | 0.16 µM | Cl.Cl.N[C@H]1CC[C@H](Nc2nc(NC3CCN(S(=O)(=O)c4cccc(C(F)(F)F)c4)CC3)c3ncn(C4CCCC4)c3n2)CC1 [compound 112, trans-N^2-(4-Amino-cyclohexyl)-9-cyclopentyl-N^6-[1-(3-trifluoromethyl-benzenesulfonyl)-piperidin-4-yl]-9H-purine-2,6-diamine dihydrochloride] | 32 nM | – | – | 2.4 | 3.7 | – | – | – | – | – | 4170 ± 3111 | – | – | 5413 ± 2845 |
